This experiment has as its target T1, HsPepT2 (Homo sapiens, UniProt Q16348).
T1 construct: The wild-type HsPepT2 gene was cloned into a pXLG vector; expressed in transfected cells; host or cells: HEK293F cells, transient transfection (pXLG vector)
T1 sequence (Q16348 1-729): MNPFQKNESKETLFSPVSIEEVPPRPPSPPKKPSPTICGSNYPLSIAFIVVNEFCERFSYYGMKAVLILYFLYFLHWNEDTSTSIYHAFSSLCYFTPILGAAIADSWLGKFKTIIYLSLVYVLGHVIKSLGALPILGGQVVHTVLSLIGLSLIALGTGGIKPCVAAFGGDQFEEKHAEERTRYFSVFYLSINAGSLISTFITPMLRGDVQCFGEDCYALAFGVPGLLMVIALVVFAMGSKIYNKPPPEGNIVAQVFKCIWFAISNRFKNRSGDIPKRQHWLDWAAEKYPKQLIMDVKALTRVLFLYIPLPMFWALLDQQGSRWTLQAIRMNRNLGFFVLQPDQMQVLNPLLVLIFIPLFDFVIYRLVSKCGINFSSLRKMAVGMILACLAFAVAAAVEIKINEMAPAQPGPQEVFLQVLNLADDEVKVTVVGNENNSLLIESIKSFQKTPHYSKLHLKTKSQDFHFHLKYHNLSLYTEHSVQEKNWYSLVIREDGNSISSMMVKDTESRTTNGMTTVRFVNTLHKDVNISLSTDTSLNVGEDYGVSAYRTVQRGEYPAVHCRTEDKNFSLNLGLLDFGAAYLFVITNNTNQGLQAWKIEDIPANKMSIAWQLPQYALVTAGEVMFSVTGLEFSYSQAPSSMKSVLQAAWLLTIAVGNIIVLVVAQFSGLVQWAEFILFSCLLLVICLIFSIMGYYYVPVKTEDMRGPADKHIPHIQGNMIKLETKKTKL
In words: Whole-cell AK-AMCA uptake competition assay in HsPepT2-transfected HEK293F cells. Conditions: for IC50: HsPepT2-transfected HEK293F cells, 50 μM β-Ala-Lys-AMCA, pH 6.0, 10 min at 37°C, read-out: IC50, concentration-dependent competition of β-Ala-Lys-AMCA uptake. In kind it is cell-based. The procedure:
The wild-type […]2 gene was cloned into a pXLG vector ([61]) containing an expression cassette composed of an N-terminal hexa-histidine tag followed by enhanced green fluorescent protein and a tobacco etch virus protease cleavage site. […] The reaction was stopped by adding 200 μl of ice-cold buffer, and the cells were then washed three times with the same buffer. Last, the cells were resuspended in 200 μl of buffer, and the fluorescence was measured in an M1000 microplate reader (TECAN) with excitation at 350 nm and emission at 450 nm. All experiments were performed in triplicates. […] For concentration-dependent uptake experiments, IC50 values were processed in GraphPad Prism 9.0 (GraphPad Software) using sigmoidal four-parameter curve fitting.

As for `NCC(=O)CCC(=O)O` [5-aminolevulinic acid], the IC50 came to 373.5 ± 1.6 µM.

`CC(C)[C@H](N)C(=O)OCC(CO)OCn1cnc2c(=O)nc(N)[nH]c21` (stereo partly drawn) [valganciclovir]: the IC50 came out at 368.9 ± 1.5 µM.

As for ß-Ala-Lys-AMCA, the “Uptake of the fluorescent reporter after HsPepT2 overexpression” value (HEK293 cells overexpressing HsPepT2) is on record as “specific uptake”.

These data come from article PMC8565842, “Structural snapshots of human PepT1 and PepT2 reveal mechanistic insights into substrate and drug transport across epithelial membranes” (Science Advances, 2021).
